Results published in patent US20140341983A1, “SMART™ SOLID ORAL DOSAGE FORMS” (priority 2011, published 2014).
Read-outs that look alike come from different tables or passages of the source.

Columns and labels:
[1] = cited from earlier work
[2] = octanol-water coefficient; cited from earlier work
[3] = cited from earlier work; remark: listed apart in the source
[4] = @ 25° C., experimental; cited from earlier work
[5] = Oral vanillin detection by direct breath LCMS (OrbiTrap); type: in vivo, human; settings: 30 μg vanillin in 10 μL neat ethanol on tongue
From the text: In the lower panel of FIG. 14, note how an internal standard (semi-volatile organic acid) stays constant for each of the six breaths.

[6] = D-limonene recovery from placebo SL powder by LCMS (stability); type: physicochemical
Experimental: Three replicate 30 mg portions of this powder were removed immediately after preparation and extracted with acetonitrile to recover the D-limonene. The extracts were analyzed by liquid chromatography-mass spectrometry (LCMS). This was repeated with three more portions after four hours and again after eight hours (FIG. 26).

[7] = Aim 1: breath kinetics and dose-response after sublingual solutions (SAW); type: in vivo, human
Experimental: Dose-response relationships were determined in four study participants following sublingual administration of solutions containing D-limonene and methyl salicylate. […] Five seconds after administration of the solution, the participant would blow a single five second breath into the SAW sensor. […] The participant kept his or her mouth closed when not providing a sample and refrained from breathing through the mouth or talking during the collection period. In addition, the more promising solutions (7, 12 and 16) were tested in triplicate to estimate reproducibility within individuals.

[8] = Breath 2-butanone after ingestion of food or 2-butanol taggant; settings: foods: two servings; 2-butanol taggant: 40 mg ingested, n=7
Experimental: To assess the interference produced by food, 6 subjects rapidly consumed (<5 min) two servings (≈16 fl. Oz) of yogurt or 2 servings (≈60 g) of cheddar cheese and breath samples were collected for 60 min after ingestion.

[9] = dose that can be taken for remainder of life without regulatory concern

SMILES | Water Sol ([1]; @ 25° C.) | log P [2] | permissible daily exposure (PDE) ([3]; orally) | VP (vapor pressure) [4] | further results
COC(=O)c1ccccc1N [methyl anthranilate] | 2,850 @ 25 °C mg/L | 1.88 |  |  | 
CCCC(C)=O [Formulation 2-pentanone, 2-pentanone] |  |  | 250 mg orally per day |  | permissible daily exposure (PDE) [3, 9]: 250 mg/day
C=C(C)[C@@H]1CC=C(C)C(=O)C1 [L-carvone] | 1,310 @ 25 °C mg/L | 2.71 |  | 0.103 @ 25 °C mmHg | 
COc1cc(C=O)ccc1O [vanillin, 4-hydroxy-3-methoxybenzaldehyde] | 11,000 @ 25 °C mg/L |  |  | 1.18E-04 @ 25 °C mmHg | persistence in human breath [5]: 2 min; persistence in human breath ([5]; listed as Vanillin): ≈ 2 min
C=C(C)[C@H]1CC=C(C)CC1 [D-limonene, 4-isopropenyl-1-methylcyclohexene] |  |  |  |  | D-limonene dose recovered from SL powder ([6]; at eight hours): 11%; D-limonene dose recovered from SL powder ([6]; at four hours): 22%; D-limonene dose recovered from SL powder ([6]; just after preparation): Approximately 65%; breath concentration measured at 5 seconds lost by 50 seconds ([7]; human, in vivo): 78%; time course of flavorant concentration in exhaled breath ([7]; in vivo): decayed exponentially over time
CCC(C)O (stereo not drawn) [Formulation 2-butanol, 2-butanol] |  |  | 300 mg orally per day |  | Maximum 2-butanone (Cmax) in breath [8]: ≈ 549 ppb; Tmax of 2-butanone in breath [8]: 6.7 ± 0.6 min; permissible daily exposure (PDE) [3, 9]: 300 mg/day
COC(=O)c1ccccc1O [methyl salicylate, methyl-2-hydroxybenzoate] |  | 2.55 |  | 0.0343 @ 25 °C mmHg | Water Sol ([1]; @ 30° C.): 700 @ 30 °C mg/L; time course of flavorant concentration in exhaled breath ([7]; after a single SL administration): decayed exponentially over time; breath concentration measured at 5 seconds lost by 50 seconds ([7]; single SL administration, average): 50%
CC(C)c1cccc(C(C)C)c1O [propofol, reference compound] | 124 @ 25 °C mg/L |  |  | 0.00305 @ 25 °C mmHg | 
CC(C)[C@@H]1CC[C@@H](C)C[C@H]1O (racemic) [DL-menthol] | 456 @ 25 °C mg/L |  |  | 0.0637 @ 25 °C mmHg | 
CCO [ethanol, reference compound] |  |  | 166.7 mg orally per day |  | 
